Assay results from the CheMixHub viscosity set.

Test: xn = mol fraction of the nth substance listed

CC(C)CO + Cc1ccc(C)cc1
308.15 K, 101 kPa
Conditions	viscosity [mPa·s]
x1 = 0.0452	0.549
x1 = 0.1043	0.562
x1 = 0.1908	0.595
x1 = 0.3019	0.649
x1 = 0.3823	0.697
x1 = 0.4859	0.775
x1 = 0.6097	0.969
x1 = 0.7046	1.218
x1 = 0.8071	1.487
x1 = 0.8948	1.856
x1 = 0.9585	2.247

CCCCCOC(C)=O + Cc1cccc(O)c1
Conditions	viscosity [mPa·s]
298.15 K, 101 kPa, x2 = 0.5	1.167

CCCCCC + CCCCO
viscosity [mPa·s]
Conditions	298.15 K	313.15 K	318.15 K
101 kPa, x2 = 0.08	0.33	–	0.266
101 kPa, x2 = 0.1284	0.345	–	0.284
101 kPa, x2 = 0.1441	0.35	–	0.29
101 kPa, x2 = 0.2	0.385	–	0.311
101 kPa, x2 = 0.28	0.415	–	0.33
101.3 kPa, x2 = 0.0999	0.3222	0.2741	–
101.3 kPa, x2 = 0.1997	0.3628	0.306	–
101.3 kPa, x2 = 0.299	0.4227	0.3503	–
101.3 kPa, x2 = 0.4007	0.5201	0.4169	–
101.3 kPa, x2 = 0.499	0.642	0.5063	–
101.3 kPa, x2 = 0.5988	0.8264	0.6311	–
101.3 kPa, x2 = 0.6996	1.082	0.8166	–
101.3 kPa, x2 = 0.8	1.421	1.041	–
101.3 kPa, x2 = 0.8994	1.888	1.33	–
101.33 kPa, x1 = 0.0971	1.848	–	–
101.33 kPa, x1 = 0.1707	1.496	–	–
101.33 kPa, x1 = 0.2625	1.169	–	–
101.33 kPa, x1 = 0.3521	0.909	–	–
101.33 kPa, x1 = 0.4142	0.778	–	–
101.33 kPa, x1 = 0.562	0.539	–	–
101.33 kPa, x1 = 0.6624	0.44	–	–
101.33 kPa, x1 = 0.8147	0.348	–	–
101.33 kPa, x1 = 0.9267	0.306	–	–

CCCCCC + CC(C)O
viscosity [mPa·s], 101 kPa
Conditions	298.15 K	308.15 K
x2 = 0.0486	0.318	0.26
x2 = 0.1046	0.326	0.268
x2 = 0.1633	0.334	0.276
x2 = 0.272	0.364	0.31
x2 = 0.3138	0.377	0.33
x2 = 0.3636	0.399	0.36
x2 = 0.4036	0.42	0.382
x2 = 0.5026	0.496	0.451
x2 = 0.563	0.557	0.508
x2 = 0.6074	0.613	0.561
x2 = 0.6996	0.763	0.694
x2 = 0.8182	1.06	0.934
x2 = 0.9038	1.4	1.237
x2 = 0.9566	1.723	1.379

O=C1CCCN1C1CCCCC1 + O
298.15 K, 100 kPa
Conditions	viscosity [mPa·s]
x1 = 0.01	1.219
x1 = 0.0196	1.621
x1 = 0.0303	2.139
x1 = 0.0392	2.582
x1 = 0.0484	3.059
x1 = 0.0565	3.503
x1 = 0.0683	4.138
x1 = 0.079	4.749
x1 = 0.0878	5.762
x1 = 0.0982	5.739
x1 = 0.2023	10.42
x1 = 0.2989	12.86
x1 = 0.3988	13.62
x1 = 0.498	13.33
x1 = 0.5984	12.65
x1 = 0.7063	11.87
x1 = 0.7985	11.27
x1 = 0.8996	10.76
x1 = 0.9093	10.71
x1 = 0.9161	10.68
x1 = 0.928	10.65
x1 = 0.9365	10.61
x1 = 0.9461	10.58
x1 = 0.9574	10.52
x1 = 0.9675	10.5
x1 = 0.9784	10.46
x2 = 0.0112	10.41
